# PMC11861696, “The First K^+-Channel Blocker Described from Tityus fasciolatus Venom: The Purification, Molecular Cloning, and Functional Characterization of α-KTx4.9 (Tf5)” (Toxins, 2025)
# Positions of bridges follow the written chain, without caps; N, C: chain ends. Residues, ends and D or L forms follow the SMILES beside them. No end group written: not given here.
# Assays:
# Kv1.3 [1] = molecular target: T1, Kv1.3 (Mus musculus, UniProt P16390); experiment: whole-cell patch-clamp, K+ current of Kv1.3 in L929; type: cell-based
# T1 construct: expressed in transfected cells; host or cells: L929
# T1 sequence (P16390 whole entry): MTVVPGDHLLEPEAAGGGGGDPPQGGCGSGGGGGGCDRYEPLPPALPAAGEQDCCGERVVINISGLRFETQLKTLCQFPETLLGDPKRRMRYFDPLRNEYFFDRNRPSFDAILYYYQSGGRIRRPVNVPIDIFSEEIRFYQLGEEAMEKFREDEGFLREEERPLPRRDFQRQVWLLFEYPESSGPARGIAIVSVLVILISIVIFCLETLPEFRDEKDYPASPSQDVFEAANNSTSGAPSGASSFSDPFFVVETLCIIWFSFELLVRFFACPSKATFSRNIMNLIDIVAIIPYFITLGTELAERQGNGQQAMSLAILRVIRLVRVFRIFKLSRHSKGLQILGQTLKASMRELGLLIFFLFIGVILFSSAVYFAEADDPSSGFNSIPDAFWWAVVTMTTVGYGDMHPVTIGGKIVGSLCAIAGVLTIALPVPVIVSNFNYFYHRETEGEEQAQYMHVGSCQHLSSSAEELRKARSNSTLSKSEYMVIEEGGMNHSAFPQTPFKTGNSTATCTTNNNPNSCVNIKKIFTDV
# Experimental: (§1) Human Embrionary kidney HEK293T cells were grown in Dulbeccos’s Modified Eagle’s Medium (Sigma-Aldrich, St. Louis, MO, USA) supplemented with 10% fetal calf serum (GIBCO-ThermoFischer, Waltham, MA, USA) and 1% Antibiotic-Antimycotic® (GIBCO-ThermoFischer, Waltham, MA, USA). HEK293T cells were transfected with 1 μg of pcDNA3-Kv1.1, pcDNA3-Kv1.2, or pcDNA3-Kv1.4 and 0.1 μg of EGFP (Clontech Laboratories, Palo Alto, CA, USA) using Lipofectamine 3000 (ThermoFischer, Waltham, MA, USA). L929 cells expressing the Kv1.3 channel were grown in Dulbeccos’s Modified Eagle’s Medium (Sigma-Aldrich) supplemented with 10% fetal calf serum and 100 units/mL of penicillin and 10 µg/mL of streptomycin. Cells were grown in an incubator with a moist atmosphere and 5% CO2, at a constant temperature of 37 °C.
# (§2) Potassium macrocurrents (IKs) were measured in whole-cell mode using a HEKA EPC 10 USB amplifier and controlled by PATCHMASTER software version 2x92 (HEKA Elektronik, Lambrecht, Germany). Experiments were performed at a room temperature of 23 °C. […]
# (§3) The pipette (internal) solution contained (mM) KCl 140, MgCl2 2, CaCl2 1, EGTA 10, and HEPES 10, with a pH of 7.3 corrected with KOH and an experimental osmolarity of 337 mOsmol. […] The solutions’ osmolarity was measured with a K-7400S semi-micro osmometer (Knauer Berlin, Germany). […]
# Kv1.2 [2] = molecular target: T2, Kv1.2 (Homo sapiens, UniProt P16389); experiment: whole-cell patch-clamp, K+ current of Kv1.2 in HEK293T; type: cell-based
# T2 construct: expressed in transfected cells; host or cells: HEK293T
# T2 sequence (P16389 whole entry): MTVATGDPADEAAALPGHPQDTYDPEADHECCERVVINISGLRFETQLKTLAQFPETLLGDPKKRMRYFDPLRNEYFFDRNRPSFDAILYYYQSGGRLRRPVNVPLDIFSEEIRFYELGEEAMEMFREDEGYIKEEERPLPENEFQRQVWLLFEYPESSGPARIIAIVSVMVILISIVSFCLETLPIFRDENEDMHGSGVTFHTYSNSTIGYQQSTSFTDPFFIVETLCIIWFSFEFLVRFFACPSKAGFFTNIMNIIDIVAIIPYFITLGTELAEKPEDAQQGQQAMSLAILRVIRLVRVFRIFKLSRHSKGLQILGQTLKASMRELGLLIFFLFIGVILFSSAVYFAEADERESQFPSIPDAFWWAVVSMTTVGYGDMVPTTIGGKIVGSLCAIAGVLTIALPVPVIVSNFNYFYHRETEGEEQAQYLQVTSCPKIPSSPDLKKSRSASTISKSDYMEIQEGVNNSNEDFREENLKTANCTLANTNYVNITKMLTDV
# Experimental: as §1, §2, §3
# A549 carcinoma cell = tested on: A549 carcinoma cell; parameters: method as in PMID 21087602; conditions: cited from earlier work
# Kv1.3 [3] = molecular target: T1, Kv1.3; conditions: cited from earlier work
# Kv1.2 [4] = molecular target: T2, Kv1.2; conditions: cited from earlier work
molecule,measurement,setting,value
"CC[C@H](C)[C@@H]1NC(=O)[C@H](C)NC(=O)[C@H](CCC(=O)O)NC(=O)[C@H](CCCCN)NC(=O)[C@@H]2CSSC[C@@H](C(=O)N[C@@H](Cc3ccc(O)cc3)C(=O)N3CCC[C@H]3C(=O)O)NC(=O)[C@H](CCCCN)NC(=O)[C@@H]3CSSC[C@H](NC(=O)[C@H](CCC(=O)O)NC(=O)[C@@H]4CCCN4C(=O)[C@H](CO)NC(=O)CNC(=O)[C@H](CCCNC(=N)N)NC(=O)[C@@H](NC(=O)[C@H](CCCNC(=N)N)NC(=O)[C@H](C)NC(=O)[C@H](CC(N)=O)NC(=O)[C@@H](NC(=O)[C@H](Cc4ccccc4)NC(=O)[C@@H](N)C(C)C)[C@@H](C)CC)CSSC[C@H](NC(=O)[C@H](CCCCN)NC(=O)CNC(=O)[C@H](C)NC(=O)[C@H](CO)NC(=O)[C@H](CCCCN)NC(=O)CNC1=O)C(=O)N[C@@H](CCSC)C(=O)N[C@@H](CC(N)=O)C(=O)NCC(=O)N[C@@H](CCCCN)C(=O)N3)C(=O)N[C@@H](CC(C)C)C(=O)N1CCC[C@H]1C(=O)N[C@@H](CCCCN)C(=O)N2 [Tf5] (H-VFINARCRGSPECLPKCKEAIGKSAGKCMNGKCKCYP-OH; disulfide 7-28, 13-33, 17-35)",inhibition at 0.5 µM,"Kv1.3 [1]; 500 nM Tf5, L929 cells expressing Kv1.3, whole-cell, stimulated at 30 mV over 200 ms from -80 mV, 23 °C, n = 7",81.8 ± 4.29%
same,IC50,"Kv1.3 [1]; dose–response curve, Figure 5F, n ≥5 for each concentration, read-out: Log IC50 Kv1.3 (converted)",116 nM
same,inhibition at 0.5 µM,"Kv1.2 [2]; HEK-293T, 500 nM Tf5, HEK293T transfected with pcDNA3-Kv1.2, whole-cell, stimulated at 30 mV over 200 ms from -80 mV, 23 °C, n = 9",90.2 ± 3.78%
same,IC50,"Kv1.2 [2]; dose–response curve, Figure 5E, n ≥5 for each concentration, read-out: Log IC50 Kv1.2 (converted)",15.5 nM
"MgTx: isolated from the scorpion Centruroides margaritatus, Kv1.2 and Kv1.3 blocker (TIINVKCTSPKQCLPPCKAQFGQSAGAKCMNGKCKCYPH; ends and bridges not checked; cysteine pairing not given here; UniProt P40755 1-39, looked up)",viability of A549 carcinoma cell cultures,A549 carcinoma cell,reduce the viability
same,block of Kv1.3,Kv1.3 [3],Kv1.2 and Kv1.3 blocker
same,block of Kv1.2,Kv1.2 [4],Kv1.2 and Kv1.3 blocker
